Patent publication US12173012B2, “Indolocarbazole analogs of staurosporine and methods of synthesis thereof” (priority 2020, dated 2024)
Read-outs that look alike come from different tables or passages of the source.

Assays:
[1] = system: HMLE breast cancer cell line; details: for IC50: read-out: HMLE IC50
[2] = system: MDA-MB-231 breast cancer cell line; details: read-out: MDA-MB-231 IC50; MDA-MB-231 cells, 72 h incubation, MTS readout
[3] = system: MDA-MB-231 breast cancer cell line; assay: cells; details: Homo sapiens, MDA-MB-231, 72 h, read-out: MDA-MB-231 IC50

SMILES	fold less active/potent than staurosporine against HMLE cell line [1]	IC50 [1]	IC50 [2]	IC50 [3]
CN[C@@H]1C[C@H]2O[C@@](C)([C@@H]1OC)n1c3ccc(O)cc3c3c4c(c5c6ccccc6n2c5c31)C(=O)NC4 [Compound 13, 9-OH staurosporine]	5.6 fold	27.5 nM	2 nM	–
CN[C@@H]1C[C@H]2O[C@@](C)([C@@H]1OC)n1c3ccccc3c3c4c(c5c6ccccc6n2c5c31)C(=O)NC4 [Staurosporine]	–	–	–	2.5 nM
CN[C@@H]1C[C@H]2O[C@@](C)([C@@H]1OC)n1c3cc(O)ccc3c3c4c(c5c6ccccc6n2c5c31)C(=O)NC4 [Compound 14, 10-OH staurosporine]	12.0 fold	58.7 nM	3.4 nM	–
